Test results taken from BindingDB's records for doi:10.1016/j.bioorg.2006.11.002 (The Josip Juraj Strossmayer University, 2007).

Columns and labels:
Dipeptidyl peptidase 3 [1] = target: T1, Dipeptidyl peptidase 3 (Homo sapiens, UniProt Q9NY33); experiment: Enzyme Inhibition Assay; conditions: pH 7.4; 25 °C
T1 sequence (Q9NY33 whole entry): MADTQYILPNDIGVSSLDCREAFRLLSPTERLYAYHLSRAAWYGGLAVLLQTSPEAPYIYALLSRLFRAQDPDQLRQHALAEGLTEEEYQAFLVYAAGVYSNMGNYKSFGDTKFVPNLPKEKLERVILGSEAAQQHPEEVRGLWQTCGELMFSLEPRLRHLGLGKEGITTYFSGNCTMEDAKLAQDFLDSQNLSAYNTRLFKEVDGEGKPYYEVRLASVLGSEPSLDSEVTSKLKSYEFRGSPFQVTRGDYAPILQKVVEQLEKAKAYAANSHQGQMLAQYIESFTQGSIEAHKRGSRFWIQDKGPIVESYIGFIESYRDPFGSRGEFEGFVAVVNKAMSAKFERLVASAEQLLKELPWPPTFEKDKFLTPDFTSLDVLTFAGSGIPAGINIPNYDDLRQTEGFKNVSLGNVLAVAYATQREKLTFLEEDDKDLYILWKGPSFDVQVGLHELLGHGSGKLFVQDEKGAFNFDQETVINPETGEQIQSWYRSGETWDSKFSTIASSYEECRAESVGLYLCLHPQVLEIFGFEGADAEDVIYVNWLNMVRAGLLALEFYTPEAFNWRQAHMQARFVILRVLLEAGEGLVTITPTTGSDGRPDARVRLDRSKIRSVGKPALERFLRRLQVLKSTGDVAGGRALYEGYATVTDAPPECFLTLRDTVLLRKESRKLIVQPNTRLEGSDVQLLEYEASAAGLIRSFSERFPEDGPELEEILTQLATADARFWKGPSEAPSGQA
Excerpt: The IC50 value is defined as the concentration of an inhibitor with caused 50% reduction of the enzyme activity under specific condition. The principle of these assay with synthetic 2-naphthylamide substrates is based on the absorbance at 530nm of a chromophoric complex formed by the reaction product 2-naphthylamine with Fast Blue B salt.

Dipeptidyl peptidase 3 [2] = target: T1, Dipeptidyl peptidase 3; experiment: Enzyme Inhibition Assay; conditions: pH 7.4; 25 °C; remark: listed apart in the source

| SMILES | IC50 (Dipeptidyl peptidase 3 [1]) [µM] | Kd (Dipeptidyl peptidase 3 [2]) [µM] |
| --- | --- | --- |
| CC(C)N=C(N)c1ccc2nc(C3C(c4ccccc4Cl)C(c4nc5ccc(C(=N)NC(C)C)cc5[nH]4)C3c3ccccc3Cl)[nH]c2c1 (stereo not drawn) [2,4-Disubstituted-1,3-di-(5-amidino-2-benzoimidazolyl)-cyclobutane hydrochoride, 6'] | 6 |  |
| c1coc(C2C(c3nc4ccc(C5=NCCN5)cc4[nH]3)C(c3ccco3)C2c2nc3ccc(C4=NCCN4)cc3[nH]2)c1 (stereo not drawn) [2,4-Disubstituted-1,3-di-(5-amidino-2-benzoimidazolyl)-cyclobutane hydrochoride, 7'] | 8 |  |
| C(=Cc1nc2ccc(C3=NCCN3)cc2[nH]1)c1ccccc1 [Benzimidazole derivative, 3] | 10 |  |
| CC(C)N=C(N)c1ccc2nc(C3C(c4ccccc4)C(c4nc5ccc(C(=N)NC(C)C)cc5[nH]4)C3c3ccccc3)[nH]c2c1 (stereo not drawn) [2,4-Disubstituted-1,3-di-(5-amidino-2-benzoimidazolyl)-cyclobutane hydrochoride, 3'] | > 10 |  |
| Clc1ccccc1C1C(c2nc3ccc(C4=NCCN4)cc3[nH]2)C(c2ccccc2Cl)C1c1nc2ccc(C3=NCCN3)cc2[nH]1 (stereo not drawn) [2,4-Disubstituted-1,3-di-(5-amidino-2-benzoimidazolyl)-cyclobutane hydrochoride, 4'] | > 1.7 |  |
| C(=C\c1nc2ccccc2[nH]1)/c1ccccc1 [Benzimidazole derivative, 4] | > 100 |  |
| c1ncc(-c2nc3cc(C4=NCCN4)ccc3[nH]2)[nH]1 [Benzimidazole derivative, 2] | 18 |  |
| N=C(N)c1ccc2[nH]c(-c3c[nH]cn3)nc2c1 [Benzimidazole derivative, 1] | 53 |  |
| N=C(N)c1ccc2nc(C3C(c4ccccc4Cl)C(c4nc5ccc(C(=N)N)cc5[nH]4)C3c3ccccc3Cl)[nH]c2c1 (stereo not drawn) [2,4-Disubstituted-1,3-di-(5-amidino-2-benzoimidazolyl)-cyclobutane hydrochoride, 5'] | 7 |  |
| c1ccc(C2C(c3nc4ccc(C5=NCCN5)cc4[nH]3)C(c3ccccc3)C2c2nc3ccc(C4=NCCN4)cc3[nH]2)cc1 (stereo not drawn) [2,4-Disubstituted-1,3-di-(5-amidino-2-benzoimidazolyl)-cyclobutane hydrochoride, 1'] | 2.8 | 0.2 |
| c1csc(C2C(c3nc4ccc(C5=NCCN5)cc4[nH]3)C(c3cccs3)C2c2nc3ccc(C4=NCCN4)cc3[nH]2)c1 (stereo not drawn) [2,4-Disubstituted-1,3-di-(5-amidino-2-benzoimidazolyl)-cyclobutane hydrochoride, 8'] | 10 |  |
| N=C(N)c1ccc2nc(C3C(c4ccccc4)C(c4nc5ccc(C(=N)N)cc5[nH]4)C3c3ccccc3)[nH]c2c1 (stereo not drawn) [2,4-Disubstituted-1,3-di-(5-amidino-2-benzoimidazolyl)-cyclobutane hydrochoride, 2'] | 5.6 |  |
